Source: patent US6392083B1, “Process for producing salts of cyanobenzylamines” (Showa Denko K.K., priority 1999, dated 2002)

Experiments:
[1] = Bulk density measured with Powder-tester Type PT-N; assay type: physicochemical; details: dried salt powder; Powder-tester Type PT-N (Hosokawa Micron); hydrochloride
Method: The bulk density was measured with a Powder-tester Type PT-N (product of Hosokawa Micron).

[2] = Description: These two compounds are difficult to separate through distillation due to the small difference between their respective boiling points.

Structure (SMILES)	bulk density [1] [g/mL]	water solubility [2]
Cl.N#Cc1ccc(CN)cc1 [Comparative Example, p-Cyanobenzylamine hydrochloride, reference compound]	0.2	
Cl.N#Cc1ccc(CN)cc1 [Example 1, p-cyanobenzylamine hydrochloride]	0.3	
Cl.N#Cc1ccc(CN)cc1 [Example 7, p-cyanobenzylamine hydrochloride]	0.5	
Cl.N#Cc1ccc(CN)cc1 [p-cyanobenzylamine hydrochloride]		much lower than that of p-xylylenediamine hydrochloride
